What was measured:
Experiment in all cases: relative viability (nuclei count vs DMSO), 5 days (fraction); higher = more cells survive
[1] = tested on: A-427
In short: (§1)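 Values are medians from duplicate plates. Each reflects relative viability, defined as the nuclei count of treated wells over that of vehicle wells. Lung cancer cell lines in 1536-well plates were pin-tool dosed one day after seeding with one drug alone or with a fixed anchor-drug dose plus five library-drug doses (not always all listed) in √10 steps, then fixed, stained and imaged at 4× after 5 days.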

[2] = tested on: ABC-1
In short: as §1

[3] = tested on: COR-L23
In short: as §1

[4] = tested on: EMC-BAC-2
In short: as §1

[5] = tested on: HARA
In short: as §1

[6] = tested on: HOP-62
In short: as §1

[7] = tested on: LK-2
In short: as §1

[8] = tested on: LXF-289
In short: as §1

[9] = tested on: NCI-H1792
In short: as §1

[10] = tested on: NCI-H1793
In short: as §1

[11] = tested on: NCI-H1944
In short: as §1

[12] = tested on: NCI-H1993
In short: as §1

[13] = tested on: NCI-H2009
In short: as §1

[14] = tested on: NCI-H2170
In short: as §1

[15] = tested on: NCI-H2228
In short: as §1

[16] = tested on: NCI-H3122
In short: as §1

[17] = tested on: NCI-H596
In short: as §1

[18] = tested on: NCI-H727
In short: as §1

[19] = tested on: PC-3 [JPC-3]
In short: as §1

[20] = tested on: SK-LU-1
In short: as §1

[21] = tested on: SK-MES-1
In short: as §1

[22] = tested on: SW 1573
In short: as §1

## O=C(O)c1ccc(-c2c[nH]c3ncc(-c4ccccc4)cc23)cc1C1CCCC1 + CS(=O)(=O)N1CCN(Cc2cc3nc(-c4cccc5[nH]ncc45)nc(N4CCOCC4)c3s2)CC1 [Pictilisib] (partner 1 µM)
[1]; first compound 0.04 µM
  relative viability: 0.836
[1]; first compound 0.1265 µM
  relative viability: 0.738
[1]; first compound 0.4 µM
  relative viability: 0.723
[1]; first compound 1.265 µM
  relative viability: 0.738
[2]; first compound 0.04 µM
  relative viability: 0.673
[2]; first compound 0.1265 µM
  relative viability: 0.596
[2]; first compound 0.4 µM
  relative viability: 0.689
[2]; first compound 1.265 µM
  relative viability: 0.757
[3]; first compound 0.04 µM
  relative viability: 0.775
[3]; first compound 0.1265 µM
  relative viability: 0.9
[3]; first compound 0.4 µM
  relative viability: 0.798
[3]; first compound 1.265 µM
  relative viability: 0.425
[4]; first compound 0.04 µM
  relative viability: 0.555
[4]; first compound 0.1265 µM
  relative viability: 0.557
[4]; first compound 0.4 µM
  relative viability: 0.537
[4]; first compound 1.265 µM
  relative viability: 0.554
[5]; first compound 0.04 µM
  relative viability: 0.31
[5]; first compound 0.1265 µM
  relative viability: 0.604
[5]; first compound 0.4 µM
  relative viability: 0.449
[5]; first compound 1.265 µM
  relative viability: 0.545
[6]; first compound 0.04 µM
  relative viability: 1.05
[6]; first compound 0.1265 µM
  relative viability: 0.884
[6]; first compound 0.4 µM
  relative viability: 0.686
[6]; first compound 1.265 µM
  relative viability: 0.66
[7]; first compound 0.04 µM
  relative viability: 0.754
[7]; first compound 0.1265 µM
  relative viability: 0.507
[7]; first compound 0.4 µM
  relative viability: 0.611
[7]; first compound 1.265 µM
  relative viability: 0.592
[8]; first compound 0.04 µM
  relative viability: 0.762
[8]; first compound 0.1265 µM
  relative viability: 0.869
[8]; first compound 0.4 µM
  relative viability: 0.645
[8]; first compound 1.265 µM
  relative viability: 0.404
[9]; first compound 0.04 µM
  relative viability: 0.287
[9]; first compound 0.1265 µM
  relative viability: 0.311
[9]; first compound 0.4 µM
  relative viability: 0.329
[9]; first compound 1.265 µM
  relative viability: 0.27
[10]; first compound 0.04 µM
  relative viability: 0.387
[10]; first compound 0.1265 µM
  relative viability: 0.43
[10]; first compound 0.4 µM
  relative viability: 0.308
[10]; first compound 1.265 µM
  relative viability: 0.336
[11]; first compound 0.04 µM
  relative viability: 0.359
[11]; first compound 0.1265 µM
  relative viability: 0.338
[11]; first compound 0.4 µM
  relative viability: 0.309
[11]; first compound 1.265 µM
  relative viability: 0.35
[12]; first compound 0.04 µM
  relative viability: 0.823
[12]; first compound 0.4 µM
  relative viability: 0.742
[12]; first compound 1.265 µM
  relative viability: 0.789
[13]; first compound 0.04 µM
  relative viability: 0.793
[13]; first compound 0.1265 µM
  relative viability: 0.836
[13]; first compound 0.4 µM
  relative viability: 0.788
[13]; first compound 1.265 µM
  relative viability: 0.586
[14]; first compound 0.04 µM
  relative viability: 0.386
[14]; first compound 0.1265 µM
  relative viability: 0.326
[14]; first compound 0.4 µM
  relative viability: 0.294
[14]; first compound 1.265 µM
  relative viability: 0.211
[15]; first compound 0.04 µM
  relative viability: 0.58
[15]; first compound 0.1265 µM
  relative viability: 0.549
[15]; first compound 0.4 µM
  relative viability: 0.26
[15]; first compound 1.265 µM
  relative viability: 0.274
[16]; first compound 0.04 µM
  relative viability: 0.565
[16]; first compound 0.1265 µM
  relative viability: 0.683
[16]; first compound 0.4 µM
  relative viability: 0.619
[16]; first compound 1.265 µM
  relative viability: 0.574
[17]; first compound 0.04 µM
  relative viability: 0.353
[17]; first compound 0.1265 µM
  relative viability: 0.399
[17]; first compound 0.4 µM
  relative viability: 0.353
[17]; first compound 1.265 µM
  relative viability: 0.41
[18]; first compound 0.04 µM
  relative viability: 0.363
[18]; first compound 0.1265 µM
  relative viability: 0.403
[18]; first compound 0.4 µM
  relative viability: 0.654
[18]; first compound 1.265 µM
  relative viability: 0.354
[19]; first compound 0.04 µM
  relative viability: 0.784
[19]; first compound 0.1265 µM
  relative viability: 0.799
[19]; first compound 0.4 µM
  relative viability: 0.757
[19]; first compound 1.265 µM
  relative viability: 0.768
[20]; first compound 0.04 µM
  relative viability: 0.559
[20]; first compound 0.1265 µM
  relative viability: 0.604
[20]; first compound 0.4 µM
  relative viability: 0.538
[20]; first compound 1.265 µM
  relative viability: 0.418
[21]; first compound 0.04 µM
  relative viability: 0.326
[21]; first compound 0.1265 µM
  relative viability: 0.399
[21]; first compound 0.4 µM
  relative viability: 0.283
[21]; first compound 1.265 µM
  relative viability: 0.298
[22]; first compound 0.04 µM
  relative viability: 0.638
[22]; first compound 0.1265 µM
  relative viability: 0.621
[22]; first compound 0.4 µM
  relative viability: 0.512
[22]; first compound 1.265 µM
  relative viability: 0.317

## O=C(O)c1ccc(-c2c[nH]c3ncc(-c4ccccc4)cc23)cc1C1CCCC1 + Cc1nc(NC(=O)N2CCC[C@H]2C(N)=O)sc1-c1ccnc(C(C)(C)C(F)(F)F)c1 [Alpelisib] (partner 2 µM)
[1]; first compound 0.04 µM
  relative viability: 1.03
[1]; first compound 0.1265 µM
  relative viability: 1.13
[1]; first compound 0.4 µM
  relative viability: 1.06
[1]; first compound 1.265 µM
  relative viability: 0.93
[2]; first compound 0.04 µM
  relative viability: 0.831
[2]; first compound 0.1265 µM
  relative viability: 1.09
[2]; first compound 0.4 µM
  relative viability: 1.24
[2]; first compound 1.265 µM
  relative viability: 1.2
[3]; first compound 0.04 µM
  relative viability: 0.79
[3]; first compound 0.1265 µM
  relative viability: 0.745
[3]; first compound 0.4 µM
  relative viability: 0.742
[3]; first compound 1.265 µM
  relative viability: 0.61
[4]; first compound 0.04 µM
  relative viability: 0.739
[4]; first compound 0.1265 µM
  relative viability: 0.782
[4]; first compound 0.4 µM
  relative viability: 0.719
[4]; first compound 1.265 µM
  relative viability: 0.713
[5]; first compound 0.04 µM
  relative viability: 0.775
[5]; first compound 0.1265 µM
  relative viability: 0.988
[5]; first compound 0.4 µM
  relative viability: 0.812
[5]; first compound 1.265 µM
  relative viability: 0.707
[6]; first compound 0.04 µM
  relative viability: 0.709
[6]; first compound 0.1265 µM
  relative viability: 1.02
[6]; first compound 0.4 µM
  relative viability: 0.942
[6]; first compound 1.265 µM
  relative viability: 0.922
[7]; first compound 0.04 µM
  relative viability: 1.23
[7]; first compound 0.1265 µM
  relative viability: 0.612
[7]; first compound 0.4 µM
  relative viability: 1.19
[7]; first compound 1.265 µM
  relative viability: 1.08
[8]; first compound 0.04 µM
  relative viability: 0.979
[8]; first compound 0.1265 µM
  relative viability: 1.05
[8]; first compound 0.4 µM
  relative viability: 0.756
[8]; first compound 1.265 µM
  relative viability: 0.286
[9]; first compound 0.04 µM
  relative viability: 0.681
[9]; first compound 0.1265 µM
  relative viability: 0.9
[9]; first compound 0.4 µM
  relative viability: 0.688
[9]; first compound 1.265 µM
  relative viability: 0.66
[10]; first compound 0.04 µM
  relative viability: 0.622
[10]; first compound 0.1265 µM
  relative viability: 0.706
[10]; first compound 0.4 µM
  relative viability: 0.805
[10]; first compound 1.265 µM
  relative viability: 0.754
[11]; first compound 0.04 µM
  relative viability: 0.871
[11]; first compound 0.1265 µM
  relative viability: 0.94
[11]; first compound 0.4 µM
  relative viability: 0.833
[11]; first compound 1.265 µM
  relative viability: 0.745
[12]; first compound 0.04 µM
  relative viability: 0.656
[12]; first compound 0.4 µM
  relative viability: 0.68
[12]; first compound 1.265 µM
  relative viability: 0.594
[13]; first compound 0.04 µM
  relative viability: 1.17
[13]; first compound 0.1265 µM
  relative viability: 1.16
[13]; first compound 0.4 µM
  relative viability: 1.09
[13]; first compound 1.265 µM
  relative viability: 0.955
[14]; first compound 0.04 µM
  relative viability: 0.812
[14]; first compound 0.1265 µM
  relative viability: 0.803
[14]; first compound 0.4 µM
  relative viability: 0.774
[14]; first compound 1.265 µM
  relative viability: 0.584
[15]; first compound 0.04 µM
  relative viability: 0.755
[15]; first compound 0.1265 µM
  relative viability: 0.787
[15]; first compound 0.4 µM
  relative viability: 0.552
[15]; first compound 1.265 µM
  relative viability: 0.468
[16]; first compound 0.04 µM
  relative viability: 0.724
[16]; first compound 0.1265 µM
  relative viability: 0.825
[16]; first compound 0.4 µM
  relative viability: 0.752
[16]; first compound 1.265 µM
  relative viability: 0.617
[17]; first compound 0.04 µM
  relative viability: 0.492
[17]; first compound 0.1265 µM
  relative viability: 0.427
[17]; first compound 0.4 µM
  relative viability: 0.484
[17]; first compound 1.265 µM
  relative viability: 0.402
[18]; first compound 0.04 µM
  relative viability: 0.545
[18]; first compound 0.1265 µM
  relative viability: 0.629
[18]; first compound 0.4 µM
  relative viability: 0.7
[18]; first compound 1.265 µM
  relative viability: 0.49
[19]; first compound 0.04 µM
  relative viability: 1.05
[19]; first compound 0.1265 µM
  relative viability: 1.03
[19]; first compound 0.4 µM
  relative viability: 1.04
[19]; first compound 1.265 µM
  relative viability: 0.89
[20]; first compound 0.04 µM
  relative viability: 0.901
[20]; first compound 0.1265 µM
  relative viability: 1.06
[20]; first compound 0.4 µM
  relative viability: 0.817
[20]; first compound 1.265 µM
  relative viability: 0.548
[21]; first compound 0.04 µM
  relative viability: 0.83
[21]; first compound 0.1265 µM
  relative viability: 1.01
[21]; first compound 0.4 µM
  relative viability: 0.834
[21]; first compound 1.265 µM
  relative viability: 0.803
[22]; first compound 0.04 µM
  relative viability: 0.687
[22]; first compound 0.1265 µM
  relative viability: 0.89
[22]; first compound 0.4 µM
  relative viability: 0.797
[22]; first compound 1.265 µM
  relative viability: 0.891
